Source: patent publication US7456171B2, “1,4-Diazabicyclo[3.2.2]nonanecarboxamide derivatives, preparation and therapeutic use thereof” (Sanofi-Aventis, priority 2002, dated 2008)

melting point: 228 to 229 °C
SMILES: O=C(c1c[nH]c2nc(Cl)ccc12)N1CCN2CCC1CC2
